In EP0155799A2, “Paulomycin analogues and their preparation” (THE UPJOHN COMPANY, priority 1984, dated 1985):
≈ marks a conversion by molar mass, not a printed value. Like-named read-outs stand apart in the source and are kept apart here.

How the values were obtained:
[1] = Solubility (characterization); format: physicochemical; conditions: solvents as named in the value
Escherichia coli = experiment: MIC, standard microplate agar assay, PYG agar pH 6 (aerobic bacteria); format: cell-based; conditions: read-out: MINIMAL INHIBITORY CONCENTRATION
Method: (§1) The antibacterial assay is a standard microplate agar assay using PYG agar, pH 6. PYG agar consists of the following ingredients:
(§2) The MIC is determined by standard methods. The inocula are overnight cultures of the test organisms, diluted so that the final population contains approximately 10^5 cells/ml. The agar plates are incubated at 28°C to 37°C for 24 hrs. The lowest antibiotic concentration which allows no growth=MIC or minimum inhibitory concentration.
as §2, with “growth-HIC” for “growth=MIC”

Serratia marcescens = experiment: as above; format: cell-based; conditions: for MIC: Serratia marcescens, UC6888, 24 h, pH 6, Serratia marcescens UC 6888, pH 6, read-out: MINIMAL INHIBITORY CONCENTRATION
Method: as §1, §2
as §2, with “growth-HIC” for “growth=MIC”

Citrobacter freundii = experiment: as above; format: cell-based; conditions: UC3507, 24 h; Citrobacter freundii UC 3507, pH 6; read-out: MINIMAL INHIBITORY CONCENTRATION
Method: as §1, §2
as §2, with “growth-HIC” for “growth=MIC”

Staphylococcus aureus = experiment: as above; format: cell-based; conditions: read-out: MINIMAL INHIBITORY CONCENTRATION
Method: as §1, §2
as §2, with “growth-HIC” for “growth=MIC”

Enterobacter cloacae = experiment: as above; format: cell-based; conditions: read-out: MINIMAL INHIBITORY CONCENTRATION
Method: as §1, §2
as §2, with “growth-HIC” for “growth=MIC”

Klebsiella oxytoca = experiment: as above; format: cell-based; conditions: read-out: MINIMAL INHIBITORY CONCENTRATION
Method: as §1, §2
as §2, with “growth-HIC” for “growth=MIC”

Proteus vulgaris = experiment: as above; format: cell-based; conditions: UC30264, 24 h; Proteus vulgaris UC 30264, pH 6; read-out: MINIMAL INHIBITORY CONCENTRATION
Method: as §1, §2
as §2, with “growth-HIC” for “growth=MIC”

Klebsiella pneumoniae = experiment: as above; format: cell-based; conditions: UC58, 24 h; Klebsiella pneumoniae UC 58, pH 6; read-out: MINIMAL INHIBITORY CONCENTRATION
Method: as §1, §2
as §2, with “growth-HIC” for “growth=MIC”

Streptococcus faecalis = experiment: as above; format: cell-based; conditions: Enterococcus faecalis, UC694, 24 h; Streptococcus faecalis UC 694, pH 6; read-out: MINIMAL INHIBITORY CONCENTRATION
Method: as §1, §2
as §2, with “growth-HIC” for “growth=MIC”

Pseudomonas aeruginosa = experiment: as above; format: cell-based; conditions: read-out: MINIMAL INHIBITORY CONCENTRATION
Method: as §1, §2
as §2, with “growth-HIC” for “growth=MIC”

[2] = system: Staphylococcus aureus U.C. 6685; experiment: Antibacterial activity in vivo, experimentally infected mouse; conditions: sc, dosed subcutaneously, infected experimentally with Staphylococcus aureus U.C. 6685, read-out: CD50 (the source's name)
[3] = UC311, 24 h, Escherichia coli UC 311, pH 6
[4] = UC9379, 24 h, Escherichia coli UC 9379, pH 6
[5] = UC9380, 24 h, Escherichia coli UC 9380, pH 6
[6] = UC3665, 24 h, Staphylococcus aureus UC 3665, pH 6
[7] = UC6675, 24 h, Staphylococcus aureus UC 6675, pH 6
[8] = UC6685, 24 h, Staphylococcus aureus UC 6685, pH 6
[9] = UC9381, 24 h, Enterobacter cloacae UC 9381, pH 6
[10] = UC9382, 24 h, Enterobacter cloacae UC 9382, pH 6
[11] = UC9383, 24 h, Klebsiella oxytoca UC 9383, pH 6
[12] = UC9384, 24 h, Klebsiella oxytoca UC 9384, pH 6
[13] = UC6432, 24 h, Pseudomonas aeruginosa UC 6432, pH 6
[14] = UC9191, 24 h, Pseudomonas aeruginosa UC 9191, pH 6

Structure (SMILES)	Solubility [1]	MIC (Escherichia coli; [3])	MIC (Escherichia coli; [4])	MIC (Escherichia coli; [5])	MIC (Serratia marcescens)	MIC (Citrobacter freundii)	MIC (Staphylococcus aureus; [6])	MIC (Staphylococcus aureus; [7])	MIC (Staphylococcus aureus; [8])	MIC (Enterobacter cloacae; [9])	MIC (Enterobacter cloacae; [10])	MIC (Klebsiella oxytoca; [11])	MIC (Klebsiella oxytoca; [12])	MIC (Proteus vulgaris)	MIC (Klebsiella pneumoniae)	MIC (Streptococcus faecalis)	MIC (Pseudomonas aeruginosa; [13])	MIC (Pseudomonas aeruginosa; [14])	MINIMAL INHIBITORY CONCENTRATION (Serratia marcescens; Serratia marcescens UC 6888, pH 6)	ED50 [2]
CC=C(N=C=S)C(=O)OC1C(COC(C)=O)OC(C2(O)CC(=O)C(O)=C(C(N)=O)C2=O)C(O)C1OC1CC(OC)C(O)(C(C)OC(=O)CC(C)C)C(C)O1 (stereo not drawn) [Paulomycin A2]	Soluble in lower alcohols, ketones, ethyl acetate, chloroform, methylene chloride; less soluble in ether; insoluble in saturated hdyrocarbon solvents	> 64 µg/mL	> 64 µg/mL	> 64 µg/mL	> 64 µg/mL	> 64 µg/mL	0.12 µg/mL (≈ 0.153 µM)	0.12 µg/mL (≈ 0.153 µM)	0.12 µg/mL (≈ 0.153 µM)	> 64 µg/mL	> 64 µg/mL	> 64 µg/mL	> 64 µg/mL	32 µg/mL (≈ 40.7 µM)	> 64 µg/mL	0.25 µg/mL (≈ 0.318 µM)	> 64 µg/mL	> 64 µg/mL		
CC=C(N=C=S)C(=O)OC1C(COC(C)=O)OC(C2(O)CC(=O)C(O)=C(C(N)=O)C2=O)C(O)C1OC1CC(OC)C(O)(C(C)OC(=O)C(C)CC)C(C)O1 (stereo not drawn) [Paulomycin A]		> 64 µg/mL	> 64 µg/mL	> 64 µg/mL	> 64 µg/mL	> 64 µg/mL	0.12 µg/mL (≈ 0.153 µM)	0.12 µg/mL (≈ 0.153 µM)	0.12 µg/mL (≈ 0.153 µM)	> 64 µg/mL	> 64 µg/mL	> 64 µg/mL	> 64 µg/mL	16 µg/mL (≈ 20.3 µM)	> 64 µg/mL	0.25 µg/mL (≈ 0.318 µM)	> 64 µg/mL	> 64 µg/mL	64 µg/mL	
CC=C(N=C=S)C(=O)OC1C(COC(C)=O)OC(C2(O)CC(=O)C(O)=C(C(N)=O)C2=O)C(O)C1OC1CC(OC)C(O)(C(C)=O)C(C)O1 (stereo not drawn) [Paulomycin E]	Soluble in lower alcohols, ketones, ethyl acetate, chloroform, methylene chloride; less soluble in ether; insoluble in saturated hdyrocarbon solvents	> 64 µg/mL	> 64 µg/mL	> 64 µg/mL	> 64 µg/mL	> 64 µg/mL	1 µg/mL (≈ 1.43 µM)	1 µg/mL (≈ 1.43 µM)	1 µg/mL (≈ 1.43 µM)	> 64 µg/mL	> 64 µg/mL	> 64 µg/mL	> 64 µg/mL	> 64 µg/mL	> 64 µg/mL	1 µg/mL (≈ 1.43 µM)	> 64 µg/mL	> 64 µg/mL		
CCC(C)C(=O)OC(C)C1(O)C(C)OC(OC2C(O)C(C3(O)CC(=O)C(O)=C(C(N)=O)C3=O)OC(COC(C)=O)C2OC(=O)C(NC(=S)SC[C@H](NC(C)=O)C(=O)O)C(C)SCCO)CC1OC (stereo partly drawn) [R2=CH2CH2OH R3=CH2CHCOOH | NHCOCH3]																				15.3 mg/kg
CCC(C)C(=O)OC(C)C1(O)C(C)OC(OC2C(O)C(C3(O)CC(=O)C(O)=C(C(N)=O)C3=O)OC(COC(C)=O)C2OC(=O)C(NC(=S)SCCO)C(C)SC[C@H](NC(C)=O)C(=O)O)CC1OC (stereo partly drawn) [R2=CH2CHCOOH | NHCOCH3 R3=CH2CH2OH]																				8 mg/kg
CCC(C)C(=O)OC(C)C1(O)C(C)OC(OC2C(O)C(C3(O)CC(=O)C(O)=C(C(N)=O)C3=O)OC(COC(C)=O)C2OC(=O)C(NC(=S)SCCO)C(C)SC(CC(=O)O)C(=O)O)CC1OC (stereo not drawn) [R2=CHCOOH | CH2COOH R3=CH2CH2OH]																				44 mg/kg
